Each block holds one molecule with its values, some of them ahead of it.
Key:
Type in all cases: functional, cell-based
[1] = tested on: C[C@H]1COc2c(N3CCN(C)CC3)c(F)cc3c(=O)c(C(=O)O)cn1c23; test: TP_TRANSPORTER: transepithelial transport (basal to apical) in MDR1-expressing LLC-PK1 cells
[2] = molecular target: T1, ATP-dependent translocase ABCB1 (Homo sapiens, UniProt P08183); test: TP_TRANSPORTER: inhibition of DU-6895a transepithelial transport (basal to apical) (DU-6895a: 100 uM, Levofloxacin: 3000 uM) in MDR1-expressing LLC-PK1 cells; settings: pig, llc-pk1, 3000 µM
[3] = molecular target: T1, ATP-dependent translocase ABCB1; test: TP_TRANSPORTER: inhibition of Daunorubicin transepithelial transport (basal to apical) (Daunorubicin: 0.1 uM, Levofloxacin: 3000 uM) in MDR1-expressing LLC-PK1 cells; settings: pig, llc-pk1, 3000 µM
[4] = molecular target: T1, ATP-dependent translocase ABCB1; test: TP_TRANSPORTER: inhibition of Levofloxacin transepithelial transport (basal to apical) (Levofloxacin: 100 uM, PAH: 2500 uM) in MDR1-expressing LLC-PK1 cells; settings: pig, llc-pk1, 2500 µM

T1 sequence (P08183 whole entry): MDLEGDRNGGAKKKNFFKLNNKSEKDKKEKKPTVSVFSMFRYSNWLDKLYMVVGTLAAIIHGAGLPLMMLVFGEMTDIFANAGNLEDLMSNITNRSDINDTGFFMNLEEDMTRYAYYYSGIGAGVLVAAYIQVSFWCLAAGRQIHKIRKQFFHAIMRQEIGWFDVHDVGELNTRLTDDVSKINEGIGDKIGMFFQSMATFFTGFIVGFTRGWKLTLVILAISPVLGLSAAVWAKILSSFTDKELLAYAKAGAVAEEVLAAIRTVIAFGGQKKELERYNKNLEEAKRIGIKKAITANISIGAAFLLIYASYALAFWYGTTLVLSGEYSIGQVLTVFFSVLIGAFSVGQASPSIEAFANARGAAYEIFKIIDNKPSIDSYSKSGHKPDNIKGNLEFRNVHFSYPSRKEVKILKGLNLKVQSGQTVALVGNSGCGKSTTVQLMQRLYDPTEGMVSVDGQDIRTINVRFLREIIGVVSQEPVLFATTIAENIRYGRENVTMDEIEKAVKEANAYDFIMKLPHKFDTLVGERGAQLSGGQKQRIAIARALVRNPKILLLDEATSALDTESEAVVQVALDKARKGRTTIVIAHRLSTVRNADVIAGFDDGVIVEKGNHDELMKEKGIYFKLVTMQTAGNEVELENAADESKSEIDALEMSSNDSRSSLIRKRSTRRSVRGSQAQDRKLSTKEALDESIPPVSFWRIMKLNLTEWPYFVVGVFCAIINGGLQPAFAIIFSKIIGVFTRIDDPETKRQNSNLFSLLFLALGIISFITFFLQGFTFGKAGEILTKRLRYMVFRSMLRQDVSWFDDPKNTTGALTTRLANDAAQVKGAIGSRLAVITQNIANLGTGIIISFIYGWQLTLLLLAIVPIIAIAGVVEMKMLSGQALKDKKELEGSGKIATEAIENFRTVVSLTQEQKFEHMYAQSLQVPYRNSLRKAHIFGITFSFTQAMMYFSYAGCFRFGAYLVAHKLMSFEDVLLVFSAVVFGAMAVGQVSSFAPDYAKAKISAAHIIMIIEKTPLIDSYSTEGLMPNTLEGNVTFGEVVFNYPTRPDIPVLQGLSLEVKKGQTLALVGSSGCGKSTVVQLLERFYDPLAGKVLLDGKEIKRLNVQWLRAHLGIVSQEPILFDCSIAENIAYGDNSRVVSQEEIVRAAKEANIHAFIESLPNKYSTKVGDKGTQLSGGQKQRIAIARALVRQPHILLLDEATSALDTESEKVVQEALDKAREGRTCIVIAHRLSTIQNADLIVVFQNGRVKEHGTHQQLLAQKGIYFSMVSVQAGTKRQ

Molecule: ATP-dependent translocase ABCB1 (Homo sapiens)
Km [1]: 3 mM

Activity [2]: inhibitor [+]
Activity [3]: inhibitor [+]
Molecule: C[C@H]1COc2c(N3CCN(C)CC3)c(F)cc3c(=O)c(C(=O)O)cn1c23.C[C@H]1COc2c(N3CCN(C)CC3)c(F)cc3c(=O)c(C(=O)O)cn1c23.O [LEVOFLOXACIN]

Activity [4]: is not an inhibitor [-]
Molecule: Nc1ccc(C(=O)NCC(=O)O)cc1 [AMINOHIPPURIC ACID]

Source: ChEMBL document CHEMBL2074274, “Transport of quinolone antibacterial drugs by human P-glycoprotein expressed in a kidney epithelial cell line, LLC-PK1” (J Pharmacol Exp Ther, 1997)
